# Measurements taken from patent US20050272808A1, “Compositions and methods for the treatment of hypertension” (priority 2004, published 2005).
# Assays:
# [1] = system: Spontaneously Hypertensive Rats (SHR); experiment: Systemic blood pressure of anesthetized Spontaneously Hypertensive Rats (i.v. bolus or p.o. intra stomach); format: in vivo, rat
# Procedure: Spontaneously Hypertensive Rats, (Harlan USA) 290-330 gr weight, were anaesthetized with 100-120 mg/kg Inactin in one single bolus injection i.p. The chest was shaven, and animal was secured in supine position. Anaesthetized rats were subject to tracheotomy with 18G catheter. The left femoral vein was cannulated for drug administration and infusion.
# For measurement of hemodynamic parameters a cannula was inserted retrogradely into the left carotid artery. The tip of the catheter was positioned close to the origin of the subclavian artery. The catheter was connected to a blood pressure measurement system (BioPac MP100 workstation, BioPac System inc.). ECG was recorded by BioPac MP100 workstation. The information was saved electronically.
# During the experiment 1 ml/h of Hartmann's solution was infused i.v.
# Alternatively an 80-125 mg/Kg of MCT-based formulation was injected p.o. intra stomach.
# Male Sprague-Dawley rats = experiment: Systemic blood pressure and ECG of normotensive anesthetized rats, i.v. bolus injection; format: in vivo
# Procedure: Male Sprague-Dawley rats, weighing 250-350 grams were anaesthetized with mixture of Ketamine (90 mg/Kg body weight) and Xylazine (10 mg/Kg body weight) in a single bolus injection. The rats' chest was shaven; and the rats were secured in supine position. Anaesthetized rats were intubated with 18G catheter, connected to a ventilator [Harvard Apparatus] and ventilated with a room air (volume: 2 ml, rate: 70 per min). The left femoral vein was cannulated for drug administration, which is standardized to injections of 0.2 ml/100 grams body weight over a period of 0.5-1 minutes.
# For measurement of hemodynamic parameters [blood pressure (BP), heart rate (HR)] a cannula was inserted retrogradely into the left carotid artery. The tip of the catheter was positioned close to the origin of the subclavian artery.
# For continuous monitoring of blood pressure (systolic and diastolic pressure) and heart rate, the catheter was connected to a pressure transducer [Grass instrument co., Quincy, Mass. USA]. To monitor the ECG (electrocardiogram): two electrodes were connected to the animal's arms and one electrode was connected to its left leg. The monitoring system was calibrated at the beginning of each experiment. Recording all the steps of the calibration. ECG and hemodynamic parameters were recorded continuously during the whole experiment.
# Monitoring rate (speed of paper) was at 5 mm/sec. At different times (stabilization, after injections, blood pressure changes, etc.,) the monitoring rate was changed to 25 mm/sec. In addition routinely, every 5 minutes the monitoring rate was changed to 25 mm/sec. for 15 sec. ECG recordings were obtained at the same times as hemodynamic measurements.
# The test compound was administered by bolus injection intravenously at different doses (2,4,6,8 mg/Kg body weight). Each dose was administrated twice in the same manner. The second dose was given after the hemodynamic parameters were recovered (or stabilized) following the first injection.
# [2] = system: cultured SV40 transformed cat iris sphincter smooth muscle (SV-CISM-2); conditions: WO 01/39766, cited from earlier work; for elevation of cGMP levels in vitro: SV-CISM-2 cells; for ability to elevate cGMP levels in cultured smooth muscle cells: comparison of the two compounds
# [3] = system: Cat iris sphincter smooth muscle (SV-CISM-2) cells; experiment: cGMP assay (RIA) in cultured smooth muscle cells in presence of IBMX; format: cell-based; conditions: for cGMP formed % of control / cGMP formed: IBMX present; for cGMP formed: mean±SEM
# Procedure: Cat iris sphincter smooth muscle (SV-CISM-2) cells were maintained in Dulbecco's modified Eagle medium (DMEM), supplemented with 10% fetal calf serum (FCS) and 50 μg/ml gentamicin (culture medium) as described by Ding et al. 1999. (Life Sci. Vol: 64 pp. 161-174) To initiate subculture, confluent SV-CISM-2 cells were washed with Ca^2+-Mg^2+ free Dulbecco's phosphate buffered salt solution (PBS) and treated with 0.05% trypsin in 0.5 mM EDTA for 3 minutes at 37° C. This was followed by addition of culture medium, and the cell suspension was centrifuged at 200 g for 5 minutes. The pelleted cells were suspended in culture medium and seeded in 6-well plates for the cGMP assay. Confluent cells, in 6-well plates were washed once with DMEM and incubated in 2 ml DMEM for 15 minutes at 37° C. IBMX (0.1 mM) was added and incubated for additional 10 minutes. The tested agent was then added and incubations continued for 10 minutes. Anantin (1 μM) or L-NAME (0.1 mM) were added along with IBMX, 10 minutes prior to addition of the tested compound. Reactions were stopped by replacing the medium with 1 ml ice-cold 5% trichloroacetic acid (TCA) (W/V). The obtained samples were homogenized, centrifuged and the supernatants were extracted with anhydrous diethylether. A 100 μl portion of the supernatant from each sample was taken; and after appropriate dilutions cGMP was assayed by radioimmunoassay RIA as described by the aforementioned Ding et al. 1999. Protein content was determinate by the method of Lowry with bovine serum albumin as standard as described in the aforementioned Ding et al. 1999. The data are presented as mean±SEM of three separate experiments with triplicate incubations for each data point.
# [4] = 20 mg/Kg body weight i.v. bolus
# [5] = 20 mg/Kg body weight i.v. bolus, 30 minutes after injection
# [6] = 4 mg/Kg body weight, single dose
# [7] = 8 mg/Kg body weight i.v. bolus, 30 minutes after first injection, FIG. 1A
# [8] = 8 mg/Kg body weight i.v. bolus, 30 minutes after first injection, FIG. 1B
# [9] = additional (second) bolus injection 8 mg/Kg, after 30 minutes
# [10] = oral administration, 80 or 125 mg/Kg
structure (smiles),measurement,setting,value
"C1=COC2(CC1)CCCCO2 (stereo not shown) [1,7-dioxaspiro[5.5]undec-2-ene]",reduction in diastolic blood pressure (range),[1]; [4],20-33%
same,reduction in systolic blood pressure (range),[1]; [5],18-28%
same,duration of effect,[1]; 20 mg/Kg i.v. bolus,about 30 minutes
same,time of maximal effect after the injection,[1]; 20 mg/Kg i.v. bolus,35 to 55 min
"C1CCC2(CCCCO2)OC1 [1,7-dioxaspiro[5.5]undecane]",effect on systemic blood pressure,"Male Sprague-Dawley rats; 2 mg/Kg body weight, single and double dose",no effect
same,hypotensive effect after second injection,"Male Sprague-Dawley rats; 4 mg/Kg body weight, second injection of the same dose",more pronounced
same,duration of hypotensive effect,Male Sprague-Dawley rats; [6],about 15 minutes
same,effect on systemic blood pressure,Male Sprague-Dawley rats; [6],mild hypotensive effect
same,reduction in systolic blood pressure (average),Male Sprague-Dawley rats; [7],18.1%
same,reduction in systolic blood pressure (range),Male Sprague-Dawley rats; [7],10-30%
same,reduction in diastolic blood pressure (average),Male Sprague-Dawley rats; [8],20.5%
same,reduction in diastolic blood pressure (range),Male Sprague-Dawley rats; [8],7-32%
same,reduction in diastolic blood pressure (average),Male Sprague-Dawley rats; [9],36.5%
same,reduction in diastolic blood pressure (range),Male Sprague-Dawley rats; [9],15-53%
same,reduction in systolic blood pressure (average),Male Sprague-Dawley rats; [9],28.3%
same,reduction in systolic blood pressure (range),Male Sprague-Dawley rats; [9],15-42%
same,effect on heart contractility (ECG monitoring),Male Sprague-Dawley rats; single and double dosage of 2-8 mg/Kg body weight i.v. bolus,no effect
same,elevation of cGMP levels in vitro,[2],elevate cGMP levels
same,ability to elevate cGMP levels in cultured smooth muscle cells,[2],comparable ability to elevate cGMP levels
same,cGMP formed % of control,[3]; 0.1 μM & Anantin (1 μM),253 % of control
same,cGMP formed,[3]; 0.1 μM & Anantin (1 μM),1.32 ± 0.1 pmol/mg protein/10 min
same,cGMP formed % of control,[3]; 0.1 μM & L-NAME (100 μM),182 % of control
same,cGMP formed,[3]; 0.1 μM & L-NAME (100 μM),0.94 ± 0.15 pmol/mg protein/10 min
same,cGMP formed % of control,[3]; 0.1 μM,236 % of control
same,cGMP formed,[3]; 0.1 μM,1.23 ± 0.1 pmol/mg protein/10 min
same,increase of cGMP concentration,"[3]; 0.1 μM, versus control",2.36 times
same,reduction in diastolic blood pressure (range),[1]; [4],15-28%
same,reduction in systolic blood pressure (range),[1]; [5],20-30%
same,duration of effect,[1]; 20 mg/Kg i.v. bolus,≥ 90 min
same,time of maximal effect after the injection,[1]; 20 mg/Kg i.v. bolus,110 to 120 min
same,reduction in systolic blood pressure (range),"[1]; oral administration, 80 mg/Kg body weight, after 150 minutes",15-28%
same,reduction in systolic blood pressure (range),"[1]; oral administration, 80 mg/Kg, after 150 minutes, stated under FIG. 5B (diastolic blood pressure)",20-30%
same,reduction in systolic blood pressure (range),"[1]; oral administration, 125 mg/Kg, 150 minutes post injection",30-45%
same,reduction in systolic blood pressure (range),"[1]; oral administration, 125 mg/Kg, after 150 minutes, stated under FIG. 5B (diastolic blood pressure)",40-53%
same,duration of effect,[1]; [10],about an hour
same,time of maximal effect after the injection,[1]; [10],150 to 220 min
"C/C=C/C=C/CCCCCCCO [E,E-8,10-Dodecadienol]",elevation of cGMP levels in vitro,[2],elevate cGMP levels
"COC(=O)[C@@H](N)CCCNC(=N)N[N+](=O)[O-] [L-NAME, N^G-nitro-L-arginine methyl ester, reference compound]","effect on 1,7-dioxaspiro[5.5]undecane-stimulated cGMP formation","[3]; tested together with 1,7-dioxaspiro[5.5]undecane 0.1 μM, Anantin 1 μM, L-NAME 100 μM",attenuated
CCCCCC/C=C\CCCCCC=O [Z-7-Tetradecenal],elevation of cGMP levels in vitro,[2],elevate cGMP levels
CCCC/C=C\CCCCCCCCCCOC(C)=O [Z-11-Hexadecenyl-Acetate],elevation of cGMP levels in vitro,[2],elevate cGMP levels
"CCCC/C=C\CCCCCCCCCCCC=O [Z-13-octadecenal, reference compound]",effect on blood pressure,"Male Sprague-Dawley rats; 4 mg/Kg body weight bolus, two animals, single and double dose",no reduction
same,effect on blood pressure,"Male Sprague-Dawley rats; 8 mg/Kg body weight bolus injection, five animals, FIG. 2",uncontrolled reduction in blood pressure in three out of five animals tested
same,response of systemic blood pressure in the two surviving animals,"Male Sprague-Dawley rats; 8 mg/Kg body weight, both injections",minimal or no response
same,toxicity of intravenous administration (mortality),"Male Sprague-Dawley rats; intravenous administration, five animals",death of three out of five animals tested
same,elevation of cGMP levels in vitro,[2],elevate cGMP levels
same,ability to elevate cGMP levels in cultured smooth muscle cells,[2],comparable ability to elevate cGMP levels
